The values below come from ChEMBL document CHEMBL4411344, “Synthesis and biological evaluation of new long-chain squaramides as anti-chagasic agents in the BALB/c mouse model” (Bioorg Med Chem, 2019).

A short description of the series: Cardiotoxicity in Balb/c mouse infected with Trypanosoma cruzi MHOM/Pe/2011/Arequipa DTU 5 trypomastigotes assessed as decrease in serum LDH level at 20 mg/kg, po once daily for 5 consecutive days starting from day 75 post infection measured on day 127 post infection relative to control. Particulars: in vivo. It is filed as toxicity, organism-based.

Molecules are shown by their SMILES.

`O=C(Cn1ccnc1[N+](=O)[O-])NCc1ccccc1` [BENZNIDAZOLE]: the Activity lay in the range of 10 to 20 U/L.
